The values that follow come from ChEMBL document CHEMBL6134780, “Halogenated retinoid derivatives as dual RARα and RXRα modulators for treating acute promyelocytic leukemia cells” (Eur J Med Chem, 2024).

pKd: −log10 of the molar value. Calls of active or inactive are those of the source. The rule behind the calls is not given here.

Test [1] relates to NB-4. As to the kind of experiment: Cell cycle arrest in human NB4 cells assessed as increase in cyclin B1 expression at 2 uM incubated for 3 to 24 hrs by Western blot analysis. The note with it: time 3-24 hrs. The format is functional, cell-based. In general terms: In western blotting, separated proteins are transferred to a membrane and probed.
Test [2] has as its target T1, Retinoic acid receptor alpha (Homo sapiens, UniProt P10276).
T1 sequence (P10276 whole entry): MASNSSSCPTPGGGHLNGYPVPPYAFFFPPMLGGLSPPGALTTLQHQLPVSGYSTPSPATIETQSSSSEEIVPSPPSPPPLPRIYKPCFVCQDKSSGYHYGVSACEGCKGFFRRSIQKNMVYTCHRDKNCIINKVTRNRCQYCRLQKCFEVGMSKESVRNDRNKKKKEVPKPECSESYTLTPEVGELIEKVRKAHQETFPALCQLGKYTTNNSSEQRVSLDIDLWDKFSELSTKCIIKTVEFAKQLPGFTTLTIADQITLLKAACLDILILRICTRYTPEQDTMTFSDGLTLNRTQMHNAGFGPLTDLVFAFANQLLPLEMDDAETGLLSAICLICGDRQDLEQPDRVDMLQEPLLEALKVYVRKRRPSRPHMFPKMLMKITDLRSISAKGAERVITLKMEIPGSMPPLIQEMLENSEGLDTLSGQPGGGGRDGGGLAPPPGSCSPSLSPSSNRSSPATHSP
As to the kind of experiment: Binding affinity to N-terminal His-tagged human RARalpha LBD extracted from Escherichia coli BL21 (DE3) cells assessed as dissociation constant by fluorescence quenching assay.

Test [3] deals with NB-4. As to the kind of experiment: Induction of apoptosis in human NB4 cells assessed as increase in cleaved-PARP expression at 2 uM incubated for 3 to 24 hrs by Western blot analysis. The class given is functional, cell-based. The note with it: time 3-24 hrs.
Test [4] deals with ATRA-resistant NB4-LR2. In words: Induction of mitosis in human ATRA-resistant NB4-LR2 cells assessed as upregulation of pT210-PLK1 expression at 2 uM measured after 3 hrs by Western blot analysis. The class given is functional, cell-based.
Test [5] concerns NB-4. As to the kind of experiment: Induction of cell death in M phase synchronized human NB4 cells assessed as reduction in mitotic cells at 0.5 uM preincubated for 4 days followed by release from thymidine block for 10 hrs by immunofluorescence staining based analysis. The class given is functional. Particulars: time 106.0 hrs.
In test [6] the target is T2, Retinoic acid receptor RXR-beta (Homo sapiens) (UniProt P28702).
T2 sequence (whole entry): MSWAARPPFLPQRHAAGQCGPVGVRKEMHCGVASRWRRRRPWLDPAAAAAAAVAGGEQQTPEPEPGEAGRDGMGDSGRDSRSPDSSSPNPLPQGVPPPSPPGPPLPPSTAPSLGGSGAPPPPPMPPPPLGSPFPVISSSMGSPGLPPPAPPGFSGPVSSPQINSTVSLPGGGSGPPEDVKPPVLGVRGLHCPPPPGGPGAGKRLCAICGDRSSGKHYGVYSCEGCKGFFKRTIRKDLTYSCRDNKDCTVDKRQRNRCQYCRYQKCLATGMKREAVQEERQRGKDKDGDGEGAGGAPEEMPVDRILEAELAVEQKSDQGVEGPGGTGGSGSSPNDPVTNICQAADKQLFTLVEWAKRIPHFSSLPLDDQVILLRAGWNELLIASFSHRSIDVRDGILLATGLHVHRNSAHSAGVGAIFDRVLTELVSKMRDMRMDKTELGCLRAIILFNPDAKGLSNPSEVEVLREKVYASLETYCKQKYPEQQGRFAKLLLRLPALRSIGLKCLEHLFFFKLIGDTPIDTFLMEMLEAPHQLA
In words: Competitive binding affinity to Gal4-fused full length RXRbeta LBD (unknown origin) transfected in HEK293T cells co-transfected with pG5luc reporter and Renilla-luc assessed as inhibition of 9-cis-RA induced transactivation at 0.1 to 1 uM incubated for 12 hrs by luciferase reporter gene assay. The class given is cell-based. The note with it: dose 0.1-1 µM. On the technique in general: In a reporter assay the amount or activity of a reporter protein is the signal.

A further test deals with HeLa. As to the kind of experiment: Induction of 3-flag-tagged PML-RARalpha (unknown origin) degradation transfected in human HeLa cells at 1 to 2 uM incubated for 24 hrs by Western blot analysis. The format is cell-based. The note with it: dose 1-2 µM.
For test [7], the system named is NB-4. In words: Induction of apoptosis in human NB4 cells assessed as late apoptotic cells at 1 uM incubated for 24 hrs by Annexin V-FITC/PI staining based flow cytometric analysis (reference value: 3.20 %). The format is functional. Background: In flow cytometry, cells or beads pass a laser one at a time.
The test system of test [8] is NB-4. In words: Induction of apoptosis in human NB4 cells assessed as early apoptotic cells at 1 uM incubated for 24 hrs by Annexin V-FITC/PI staining based flow cytometric analysis (reference value: 4.37 %). The format is functional.
Test [9] in a line: Induction of apoptosis in human ATRA-resistant NB4-LR2 cells assessed as necrotic cells at 1 uM incubated for 24 hrs by Annexin V-FITC/PI staining based flow cytometric analysis (reference value: 0.08 %). The format is functional.
The test system of another test is HEK293T. In words: Agonist activity at full length RARalpha LBD R276E mutant (unknown origin) transfected in HEK293T cells co-transfected with pG5luc reporter and Renilla-luc at 1 uM incubated for 12 hrs by luciferase reporter gene assay. The format is cell-based. Particulars: Homo sapiens.
Test [10] deals with T3, Retinoic acid receptor RXR-gamma (Homo sapiens) (UniProt P48443).
T3 sequence (whole entry): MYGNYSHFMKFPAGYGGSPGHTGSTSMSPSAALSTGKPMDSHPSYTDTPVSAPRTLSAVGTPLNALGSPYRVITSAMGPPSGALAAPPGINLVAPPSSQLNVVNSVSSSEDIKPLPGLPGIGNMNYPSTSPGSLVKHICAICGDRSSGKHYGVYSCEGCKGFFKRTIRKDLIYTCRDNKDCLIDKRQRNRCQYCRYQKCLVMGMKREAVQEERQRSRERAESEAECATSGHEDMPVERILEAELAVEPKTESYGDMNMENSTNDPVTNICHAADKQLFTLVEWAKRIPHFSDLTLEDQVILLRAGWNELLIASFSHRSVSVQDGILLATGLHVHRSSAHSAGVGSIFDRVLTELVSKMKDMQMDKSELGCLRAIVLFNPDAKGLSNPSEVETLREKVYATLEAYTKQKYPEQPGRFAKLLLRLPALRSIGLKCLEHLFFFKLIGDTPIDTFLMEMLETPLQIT
In words: Agonist activity at Gal4-fused full length RXRgamma LBD (unknown origin) transfected in HEK293T cells co-transfected with pG5luc reporter and Renilla-luc at 0.1 to 1 uM incubated for 12 hrs by luciferase reporter gene assay. The format is cell-based. Particulars: dose 0.1-1 µM.

The subject of test [11] is NB-4. In words: Induction of mitosis in human NB4 cells assessed as upregulation of pS10-histone expression at 2 uM measured after 3 hrs by Western blot analysis. The class given is functional, cell-based.
The subject of test [12] is NB-4. As to the kind of experiment: Induction of apoptosis in human NB4 cells at 2 uM incubated for 3 hrs by Western blot analysis. The format is functional, cell-based.
Test [13] relates to NB-4. In words: Induction of cell differentiation in human NB4 cells assessed as NBT positive cells at 0.5 uM incubated for 6 days by Nitro Blue tetrazolium chloride based microscopic analysis (reference value: 0 %). The format is functional. Particulars: time 6 day.
Test [14] has as its target Estrogen receptor (Homo sapiens) (UniProt P03372). As to the kind of experiment: Agonist activity at Gal4-fused full length ERalpha LBD (unknown origin) transfected in HEK293T cells co-transfected with pG5luc reporter and Renilla-luc at 0.1 to 1 uM incubated for 12 hrs by luciferase reporter gene assay. The class given is cell-based. Particulars: dose 0.1-1 µM.
Test [15] deals with ATRA-resistant NB4-LR2. As to the kind of experiment: Cell cycle arrest in human ATRA-resistant NB4-LR2 cells assessed as increase in PLK1 expression at 2 uM incubated for 3 to 24 hrs by Western blot analysis. The class given is functional, cell-based. Particulars: time 3-24 hrs.
Test [16] concerns ATRA-resistant NB4-LR2. In words: Induction of DNA damage in human ATRA-resistant NB4-LR2 cells assessed as increase in gamma-H2AX expression at 2 uM by Western blot analysis. The class given is functional, cell-based.

Sequence of Estrogen receptor (Homo sapiens) (P03372 whole entry, the tested form may be a part): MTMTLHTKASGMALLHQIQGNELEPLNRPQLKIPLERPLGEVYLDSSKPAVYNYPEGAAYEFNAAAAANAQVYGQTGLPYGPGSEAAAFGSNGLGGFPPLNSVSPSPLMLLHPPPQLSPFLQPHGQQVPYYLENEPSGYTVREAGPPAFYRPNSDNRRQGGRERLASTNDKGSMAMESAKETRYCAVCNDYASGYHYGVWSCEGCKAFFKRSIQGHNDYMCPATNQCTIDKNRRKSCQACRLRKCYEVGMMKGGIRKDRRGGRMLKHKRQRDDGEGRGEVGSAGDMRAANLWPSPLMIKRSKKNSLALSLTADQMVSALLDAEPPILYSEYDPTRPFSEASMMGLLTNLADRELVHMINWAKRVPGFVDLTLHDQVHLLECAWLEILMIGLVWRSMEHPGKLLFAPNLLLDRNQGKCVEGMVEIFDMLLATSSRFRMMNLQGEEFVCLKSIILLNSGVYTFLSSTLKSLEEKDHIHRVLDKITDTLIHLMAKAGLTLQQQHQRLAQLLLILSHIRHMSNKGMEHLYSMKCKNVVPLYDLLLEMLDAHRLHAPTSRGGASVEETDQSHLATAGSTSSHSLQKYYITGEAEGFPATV

The pKd is −log10 of the Kd, conventionally taken in molar units. As for `Cc1cc2c(cc1C(=O)/C(Br)=C\c1ccc(C(=O)O)cc1)C(C)(C)CCC2(C)C`, the result in the test with NB-4 [1], with NB-4 [3], in the test with ATRA-resistant NB4-LR2 [4], in the test on NB-4 [5], in the test with HeLa and in the test with NB-4 [11] was Active. In the test on ATRA-resistant NB4-LR2 [15], the outcome was Active. The negative logarithm of the Kd (pKd) in test [2] is 6.26. The Activity entry in test [6] is “Weak_effect”; in the test on NB-4 [7], 10.49%; with NB-4 [8], 12.39%; in test [9], 0.49%; in test [10], “Minimal_effect”; in the test on NB-4 [13] it was 69%. In addition, the Activity entry is “Minimal_effect” in test [14] and “Active; Dna Damage Detected When Apoptosis Occurred” in the test with ATRA-resistant NB4-LR2 [16]. Besides, the outcome with HEK293T and in the test on NB-4 [12] was inactive.
For the compound `Cc1cc2c(cc1C(=O)/C(Br)=C/c1ccc(C(=O)O)cc1)C(C)(C)CCC2(C)C`, the outcome with NB-4 [1], in the test on NB-4 [3], in the test with ATRA-resistant NB4-LR2 [4], with NB-4 [5], in the test with HeLa and in the test with NB-4 [11] was Active. Moreover, in the test on ATRA-resistant NB4-LR2 [15], the result was Active. Further, the pKd in test [2] was 6.36. The Activity result in [6] is “Weak_effect”; in the test with NB-4 [7] it was 15.77%; in the test with NB-4 [8], 23.14%; in test [9], 1.44%; in [10], “Minimal_effect”; in the test on NB-4 [13], 64%. In addition, the Activity entry in test [14] is “Minimal_effect”; with ATRA-resistant NB4-LR2 [16], “Active; Dna Damage Detected When Apoptosis Occurred”. Further, the result in the test with HEK293T and in the test with NB-4 [12] was inactive.
